Format in all cases: functional
The subject of assay [1] is Clostridium tetani. Nature of the assay: Antibacterial activity against Clostridium tetani MTCC 449 after 24 to 48 hr by broth microdilution method.
Assay [2] relates to Aspergillus fumigatus. The assay is described as follows: Antifungal activity against Aspergillus fumigatus MTCC 3008 after 24 to 48 hr by broth microdilution method.
For assay [3], the system named is Bacillus subtilis. Nature of the assay: Antibacterial activity against Bacillus subtilis MTCC 441 after 24 to 48 hr by broth microdilution method.
Assay [4] relates to Streptococcus pneumoniae. The assay is described as follows: Antibacterial activity against Streptococcus pneumoniae MTCC 1936 after 24 to 48 hr by broth microdilution method.
In assay [5] the test system is Candida albicans. Nature of the assay: Antifungal activity against Candida albicans MTCC 227 after 24 to 48 hr by broth microdilution method.
Assay [6] relates to Escherichia coli. Nature of the assay: Antibacterial activity against Escherichia coli MTCC 443 after 24 to 48 hr by broth microdilution method.
For assay [7], the system named is Vibrio cholerae. Nature of the assay: Antibacterial activity against Vibrio cholerae MTCC 3906 after 24 to 48 hr by broth microdilution method.
The subject of assay [8] is Salmonella typhi. Nature of the assay: Antibacterial activity against Salmonella enterica subsp. enterica serovar Typhi MTCC 98 after 24 to 48 hr by broth microdilution method.

Converted amounts (≈) assume the structure as drawn. Bounds are passed on as bounds.

Regarding `CS(=O)(=O)c1ccc(-c2[nH]c3ccccc3c2C2C(C#N)=C(N)OC3=C2C(=O)CCC3)cc1` (stereo not drawn), the MIC in assay [1] came out at 100 µg/mL (≈ 218 µM); in assay [2], 1000 µg/mL (≈ 2180 µM); in assay [3], 500 µg/mL (≈ 1090 µM); in assay [4] it was 500 µg/mL (≈ 1090 µM); in assay [5], 1000 µg/mL (≈ 2180 µM); in assay [6] it was 100 µg/mL (≈ 218 µM). The MIC in assay [7] is 500 µg/mL (≈ 1090 µM); in assay [8], 100 µg/mL (≈ 218 µM).
As to `CC1(C)S[C@@H]2[C@H](NC(=O)[C@H](N)c3ccccc3)C(=O)N2[C@H]1C(=O)O` [AMPICILLIN], the MIC in assay [1] is 250 µg/mL (≈ 715 µM); in assay [3], 250 µg/mL (≈ 715 µM); in assay [4], 100 µg/mL (≈ 286 µM); in assay [6], 100 µg/mL (≈ 286 µM); in assay [7] it was 100 µg/mL (≈ 286 µM); in assay [8] it was 100 µg/mL (≈ 286 µM).
On to `CC1(C)CC(=O)C2=C(C1)OC(N)=C(C#N)C2c1c(-c2ccc(Cl)cc2)[nH]c2ccccc12` (stereo not drawn), for which the MIC in assay [1] is 250 µg/mL (≈ 563 µM); in assay [2], more than 1000 µg/mL; in assay [3] it was 250 µg/mL (≈ 563 µM); in assay [4], 250 µg/mL (≈ 563 µM); in assay [5], more than 1000 µg/mL; in assay [6] it was 62.5 µg/mL (≈ 141 µM). The MIC amounted to 100 µg/mL (≈ 225 µM) in assay [7] and 200 µg/mL (≈ 451 µM) in assay [8].
Take `CC1(C)CC(=O)C2=C(C1)OC(N)=C(C#N)C2c1c(-c2ccc([N+](=O)[O-])cc2)[nH]c2ccccc12` (stereo not drawn): the MIC in assay [1] was 200 µg/mL (≈ 440 µM); in assay [2] it was 250 µg/mL (≈ 550 µM); in assay [3], 500 µg/mL (≈ 1100 µM); in assay [4], 250 µg/mL (≈ 550 µM); in assay [5], 200 µg/mL (≈ 440 µM); in assay [6], 250 µg/mL (≈ 550 µM). Moreover, the MIC in assay [7] was 250 µg/mL (≈ 550 µM); in assay [8], 500 µg/mL (≈ 1100 µM).
In the case of `O=C(O)c1cn(C2CC2)c2cc(N3CCNCC3)c(F)cc2c1=O` [CIPROFLOXACIN], the minimal inhibitory concentration (MIC) worked out at 50 µg/mL (≈ 151 µM) in assay [4], 25 µg/mL (≈ 75.4 µM) in assay [6], 25 µg/mL (≈ 75.4 µM) in assay [7] and 25 µg/mL (≈ 75.4 µM) in assay [8].
`COc1ccc(-c2[nH]c3ccccc3c2C2C(C#N)=C(N)OC3=C2C(=O)CC(C)(C)C3)cc1` (stereo not drawn): the MIC in assay [1] was 500 µg/mL (≈ 1140 µM); in assay [2] it was more than 1000 µg/mL; in assay [3], 500 µg/mL (≈ 1140 µM); in assay [4], 500 µg/mL (≈ 1140 µM); in assay [5] it was 500 µg/mL (≈ 1140 µM); in assay [6] it was 500 µg/mL (≈ 1140 µM). Moreover, the MIC in assay [7] and in assay [8] was 500 µg/mL (≈ 1140 µM) throughout.
`Cc1ccc(-c2[nH]c3ccccc3c2C2C(C#N)=C(N)OC3=C2C(=O)CC(C)(C)C3)cc1` (stereo not drawn): the MIC in assay [1] stood at 250 µg/mL (≈ 590 µM); in assay [2] it was 1000 µg/mL (≈ 2360 µM); in assay [3], 250 µg/mL (≈ 590 µM); in assay [4], 200 µg/mL (≈ 472 µM); in assay [5], 500 µg/mL (≈ 1180 µM); in assay [6], 500 µg/mL (≈ 1180 µM). Moreover, the MIC in assay [7] is 500 µg/mL (≈ 1180 µM); in assay [8] it was 250 µg/mL (≈ 590 µM).
For `N#CC1=C(N)OC2=C(C(=O)CCC2)C1c1c(-c2ccc(Cl)cc2)[nH]c2ccccc12` (stereo not drawn), the minimal inhibitory concentration (MIC) was 500 µg/mL (≈ 1200 µM) in assay [1]; 1000 µg/mL (≈ 2400 µM) in assay [2]; 200 µg/mL (≈ 481 µM) in assay [3]; 200 µg/mL (≈ 481 µM) in assay [4]; more than 1000 µg/mL in assay [5]; 100 µg/mL (≈ 240 µM) in assay [6]. The MIC in assay [7] is 100 µg/mL (≈ 240 µM); in assay [8] it was 125 µg/mL (≈ 301 µM).
As for `CC1(C)CC(=O)C2=C(C1)OC(N)=C(C#N)C2c1c(-c2ccccc2)[nH]c2ccccc12` (stereo not drawn), the MIC came out at 200 µg/mL (≈ 488 µM) in assay [1]; 500 µg/mL (≈ 1220 µM) in assay [2]; 200 µg/mL (≈ 488 µM) in assay [3]; 200 µg/mL (≈ 488 µM) in assay [4]; 1000 µg/mL (≈ 2440 µM) in assay [5]; 500 µg/mL (≈ 1220 µM) in assay [6]. For the same molecule, the minimum inhibitory concentration (MIC) is 200 µg/mL (≈ 488 µM) in assay [7] and 500 µg/mL (≈ 1220 µM) in assay [8].
`N#CC1=C(N)OC2=C(C(=O)CCC2)C1c1c(-c2ccc(F)cc2)[nH]c2ccccc12` (stereo not drawn): the MIC in assay [1] is 500 µg/mL (≈ 1250 µM); in assay [2] it was 1000 µg/mL (≈ 2500 µM); in assay [3], 200 µg/mL (≈ 501 µM); in assay [4], 200 µg/mL (≈ 501 µM); in assay [5], 500 µg/mL (≈ 1250 µM); in assay [6], 500 µg/mL (≈ 1250 µM). Besides, the MIC in assay [7] amounted to 250 µg/mL (≈ 626 µM); in assay [8], 500 µg/mL (≈ 1250 µM).
For `CC1(C)CC(=O)C2=C(C1)OC(N)=C(C#N)C2c1c(-c2ccc(Br)cc2)[nH]c2ccccc12` (stereo not drawn), the MIC in assay [1] is 500 µg/mL (≈ 1020 µM); in assay [2], 200 µg/mL (≈ 410 µM); in assay [3], 200 µg/mL (≈ 410 µM); in assay [4], 125 µg/mL (≈ 256 µM); in assay [5], 1000 µg/mL (≈ 2050 µM); in assay [6], 200 µg/mL (≈ 410 µM). Moreover, the MIC came to 500 µg/mL (≈ 1020 µM) in assay [7] and 250 µg/mL (≈ 512 µM) in assay [8].
Take `N#CC1=C(N)OC2=C(C(=O)CCC2)C1c1c(-c2ccc([N+](=O)[O-])cc2)[nH]c2ccccc12` (stereo not drawn): the MIC in assay [1] was determined as 250 µg/mL (≈ 586 µM); in assay [2] it was 500 µg/mL (≈ 1170 µM); in assay [3] it was 250 µg/mL (≈ 586 µM); in assay [4] it was 250 µg/mL (≈ 586 µM); in assay [5], 200 µg/mL (≈ 469 µM); in assay [6] it was 500 µg/mL (≈ 1170 µM). Moreover, the MIC in assay [7] and in assay [8] was 500 µg/mL (≈ 1170 µM) each time.
`N#CC1=C(N)OC2=C(C(=O)CCC2)C1c1c(-c2ccc(Br)cc2)[nH]c2ccccc12` (stereo not drawn): the minimal inhibitory concentration (MIC) was 200 µg/mL (≈ 434 µM) in assay [1]; 500 µg/mL (≈ 1090 µM) in assay [2]; 200 µg/mL (≈ 434 µM) in assay [3]; 100 µg/mL (≈ 217 µM) in assay [4]; 500 µg/mL (≈ 1090 µM) in assay [5]; 125 µg/mL (≈ 272 µM) in assay [6]. The MIC in assay [7] and in assay [8] was 200 µg/mL (≈ 434 µM) in each case.
Consider `COc1ccc(-c2[nH]c3ccccc3c2C2C(C#N)=C(N)OC3=C2C(=O)CCC3)cc1` (stereo not drawn), for which the MIC in assay [1] came to 100 µg/mL (≈ 243 µM); in assay [2], 1000 µg/mL (≈ 2430 µM); in assay [3] it was 250 µg/mL (≈ 608 µM); in assay [4], 200 µg/mL (≈ 486 µM); in assay [5] it was 500 µg/mL (≈ 1220 µM); in assay [6] it was 100 µg/mL (≈ 243 µM). Besides, the MIC in assay [7] and in assay [8] was 200 µg/mL (≈ 486 µM) each time.
For the molecule NYSTATIN, the minimum inhibitory concentration (MIC) in assay [2] and in assay [5] was 100 µg/mL in each case.
In the case of `N#CC1=C(N)OC2=C(C(=O)CCC2)C1c1c(-c2ccccc2)[nH]c2ccccc12` (stereo not drawn), the MIC in assay [1] was determined as 500 µg/mL (≈ 1310 µM); in assay [2] it was 500 µg/mL (≈ 1310 µM); in assay [3], 500 µg/mL (≈ 1310 µM); in assay [4], 500 µg/mL (≈ 1310 µM); in assay [5] it was 1000 µg/mL (≈ 2620 µM); in assay [6], 500 µg/mL (≈ 1310 µM). Besides, the MIC in assay [7] was 250 µg/mL (≈ 655 µM); in assay [8] it was 500 µg/mL (≈ 1310 µM).
Regarding `CC1(C)CC(=O)C2=C(C1)OC(N)=C(C#N)C2c1c(-c2ccc(F)cc2)[nH]c2ccccc12` (stereo not drawn), the MIC came out at 200 µg/mL (≈ 468 µM) in assay [1]; 250 µg/mL (≈ 585 µM) in assay [2]; 100 µg/mL (≈ 234 µM) in assay [3]; 200 µg/mL (≈ 468 µM) in assay [4]; 1000 µg/mL (≈ 2340 µM) in assay [5]; 200 µg/mL (≈ 468 µM) in assay [6]. Also, the MIC in assay [7] amounted to 500 µg/mL (≈ 1170 µM); in assay [8], 250 µg/mL (≈ 585 µM).
In the case of `CC1(C)CC(=O)C2=C(C1)OC(N)=C(C#N)C2c1c(-c2ccc(S(C)(=O)=O)cc2)[nH]c2ccccc12` (stereo not drawn), the MIC in assay [1] is 125 µg/mL (≈ 256 µM); in assay [2], 500 µg/mL (≈ 1030 µM); in assay [3], 250 µg/mL (≈ 513 µM); in assay [4] it was 500 µg/mL (≈ 1030 µM); in assay [5], 250 µg/mL (≈ 513 µM); in assay [6] it was 100 µg/mL (≈ 205 µM). Also, the MIC in assay [7] stood at 500 µg/mL (≈ 1030 µM); in assay [8], 200 µg/mL (≈ 410 µM).
Consider `CCn1cc(C(=O)O)c(=O)c2cc(F)c(N3CCNCC3)cc21` [NORFLOXACIN], for which the MIC in assay [1] came out at 50 µg/mL (≈ 157 µM); in assay [3], 100 µg/mL (≈ 313 µM); in assay [4], 10 µg/mL (≈ 31.3 µM); in assay [6] it was 10 µg/mL (≈ 31.3 µM); in assay [7] it was 10 µg/mL (≈ 31.3 µM); in assay [8], 10 µg/mL (≈ 31.3 µM).
For the molecule `COC1=CC(=O)C[C@@H](C)[C@]12Oc1c(Cl)c(OC)cc(OC)c1C2=O` [GRISEOFULVIN], the MIC in assay [2] is 100 µg/mL (≈ 283 µM); in assay [5] it was 500 µg/mL (≈ 1420 µM).
In the case of `Cc1ccc(-c2[nH]c3ccccc3c2C2C(C#N)=C(N)OC3=C2C(=O)CCC3)cc1` (stereo not drawn), the MIC in assay [1] amounted to 500 µg/mL (≈ 1260 µM); in assay [2], 1000 µg/mL (≈ 2530 µM); in assay [3], 500 µg/mL (≈ 1260 µM); in assay [4], 500 µg/mL (≈ 1260 µM); in assay [5], 1000 µg/mL (≈ 2530 µM); in assay [6], 200 µg/mL (≈ 506 µM). The minimal inhibitory concentration (MIC) in assay [7] and in assay [8] was 250 µg/mL (≈ 632 µM) throughout.

The record behind these values is ChEMBL document CHEMBL3045821, “Microwave-assisted synthesis of 3-indolyl substituted 4H-chromenes catalyzed by DMAP and their antimicrobial activity” (2012).
